The values below come from patent US10272095B2 (GlaxoSmithKline Intellectual Property Development Limited, priority 2015, dated 2019).

Where a name gives a salt, the structure may show the parent alone.

The first assay deals with NQO1 specific enzyme activity in BEAS-2B cells. Description: BEAS-2B NQO1 MTT assay. To be noted: Homo sapiens, BEAS-2B, 48 h, NQO1 specific enzyme activity induction in BEAS-2B cells, 48 hours; read-out: EC50. Format: cell-based. The gist of the method:
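BEAS-2B cells exposed to compound 48 h at 37° C, 5% CO2, then lysed. NQO1 activity read kinetically in lysate with MTT cocktail (absorbance 570 nm, 30 min); Cell Titer Glo run on a lysate aliquot. pEC50 from ΔOD/min versus log concentration, 3-parameter fit.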
Consider `Cc1c(C(c2ccc3c(c2)C(N2Cc4cccnc4O[C@H](C)C2)CC3)C(C)(C)C(=O)O)ccc2c1nnn2C` (stereo partly drawn) [Example 42, 3-(1,4-Dimethyl-1H-benzo[d][1,2,3]triazol-5-yl)-2,2-dimethyl-3-(3-((R)-2-methyl-2,3-dihydropyrido[3,2-f][1,4]oxazepin-4(5H)-yl)-2,3-dihydro-1H-inden-5-yl)propanoic Acid, Formic Acid Salt], for which the half-maximal effective concentration (EC50) lay within 1 to 10 nM. Same read-out and setting: under `Cc1c(C(CC(=O)O)c2ccc3c(c2)[C@@H]2[C@@H](CC(=O)N2CC2CCCCC2)C3)ccc2c1nnn2C` (stereo partly drawn) [Example 1, 3-[(3aR,8bS)-1-(cyclohexylmethyl)-2-oxo-1H,2H,3H,3aH,4H,8bH-indeno[1,2-b]pyrrol-7-yl]-3-(1,4-dimethyl-1H-1,2,3-benzotriazol-5-yl)propanoic Acid] stands 100 to 1000 nM; under `COc1cc(C(CC(=O)O)c2ccc3c(c2)C(N2CCOc4ccccc4C2)CC3)c(C)c2nnn(C)c12` (centres unmarked) [Example 52, 3-(3-(2,3-Dihydrobenzo[f][1,4]oxazepin-4(5H)-yl)-2,3-dihydro-1H-inden-5-yl)-3-(7-methoxy-1,4-dimethyl-1H-benzo[d][1,2,3]triazol-5-yl)propanoic Acid, Formic Acid Salt], 10 to 100 nM; under `COc1cc(C(CC(=O)O)c2ccc3c(c2)C(N2Cc4cccnc4OC(C)(C)C2)CC3)c(C)c2nnn(C)c12` (centres unmarked) [Example 44, 3-(3-(2,2-Dimethyl-2,3-dihydropyrido[3,2-f][1,4]oxazepin-4(5H)-yl)-2,3-dihydro-1H-inden-5-yl)-3-(7-methoxy-1,4-dimethyl-1H-benzo[d][1,2,3]triazol-5-yl)propanoic Acid, Formic Acid Salt], 1 to 10 nM. Same read-out and setting: for `Cc1ccc2c(c1)CN(C1CCc3ccc(C(CC(=O)O)c4ccc5c(nnn5C)c4C)cc31)C[C@@H](C)O2` (stereo partly drawn) [Example 47, 3-(1,4-Dimethyl-1H-benzo[d][1,2,3]triazol-5-yl)-3-(3-((R)-2,7-dimethyl-2,3-dihydrobenzo[f][1,4]oxazepin-4(5H)-yl)-2,3-dihydro-1H-inden-5-yl)propanoic Acid, Formic Acid Salt] the value was 10 to 100 nM; for `Cc1c([C@H](c2ccc3c(c2)[C@@H](N2Cc4ccncc4OC(C)(C)C2)CC3)C(C)(C)C(=O)O)ccc2c1nnn2C` (racemic) [Example 69, rac-(R)-3-(1,4--1H-benzo[d][1,2,3]triazol-5-yl)-3-(rac-(R)-3-(2,2-dimethyl-2,3-dihydropyrido[4,3-f][1,4]oxazepin-4(5H)-yl)-2,3-dihydro-1H-inden-5-yl)-2,2-dimethylpropanoic acid, Trifluoroacetic acid salt], below 1 nM; for `CC[C@@H]1CN([C@@H]2CCc3ccc(C(c4ccc5c(nnn5C)c4C)C(C)(C)C(=O)O)cc32)Cc2cnccc2O1` (relative stereo) [Example 75, rel-(S)-3-(1,4-Dimethyl-1H-benzo[d][1,2,3]triazol-5-yl)-3-(rel-(R)-3-((R)-2-ethyl-2,3-dihydropyrido[3,4-f][1,4]oxazepin-4(5H)-yl)-2,3-dihydro-1H-inden-5-yl)-2,2-dimethylpropanoic acid], 10 to 100 nM. The same measure, in the same setting: for `Cc1c(C(CC(=O)O)c2ccc3c(c2)C(N2Cc4ccccc4O[C@@H](C)C2)CC3)ccc2c1nnn2C` (stereo partly drawn) [Example 56, 3-(1,4-Dimethyl-1H-benzo[d][1,2,3]triazol-5-yl)-3-(3-((S)-2-methyl-2,3-dihydrobenzo[f][1,4]oxazepin-4(5H)-yl)-2,3-dihydro-1H-inden-5-yl)propanoic Acid, Formic Acid Salt] the value was 100 to 1000 nM. For `COc1cc(C(CC(=O)O)c2ccc3c(c2)C(N2Cc4ccccc4OC(C)(C)C2)CC3)cc2nnn(C)c12` (centres unmarked) [Example 43, 3-(3-(2,2-Dimethyl-2,3-dihydrobenzo[f][1,4]oxazepin-4(5H)-yl)-2,3-dihydro-1H-inden-5-yl)-3-(7-methoxy-1-methyl-1H-benzo[d][1,2,3]triazol-5-yl)propanoic Acid, Formate Salt], the EC50 was 1 to 10 nM. On to `Cc1c(C(CC(=O)O)c2ccc3c(c2)C(N2Cc4cccnc4O[C@H](C)C2)CC3)ccc2c1nnn2C` (stereo partly drawn) [Example 61, 3-(1,4-Dimethyl-1H-benzo[d][1,2,3]triazol-5-yl)-3-(3-((R)-2-methyl-2,3-dihydropyrido[3,2-f][1,4]oxazepin-4(5H)-yl)-2,3-dihydro-1H-inden-5-yl)propanoic Acid, Formic Acid Salt], for which the EC50 is 1000 to 10000 nM. For `Cc1c(C(CC(=O)O)c2ccc3c(c2)C2C(CC(=O)N2CC2CCC4CCCCC4C2)C3)ccc2c1nnn2C` (centres unmarked) [Example 4, 3-[1-(Decahydronaphthalen-2-ylmethyl)-2-oxo-1H,2H,3H,3aH,4H,8bH-indeno[1,2-b]pyrrol-7-yl]-3-(1,4-dimethyl-1H-1,2,3-benzotriazol-5-yl)propanoic Acid], the EC50 was 10 to 100 nM. The same measure, in the same setting: for `COc1cc(C(CC(=O)O)c2ccc3c(c2)C2C(CCN2C(=O)OC(C)(C)C)C3)cc2nnn(C)c12` (centres unmarked) [Example 15, 3-{1-[(tert-Butoxy)carbonyl]-1H,2H,3H,3aH,4H,8bH-indeno[1,2-b]pyrrol-7-yl}-3-(7-methoxy-1-methyl-1H-1,2,3-benzotriazol-5-yl)propanoic Acid] the value was 100 to 1000 nM; for `CC[C@@H]1CN([C@H]2CCc3ccc([C@H](c4ccc5c(nnn5C)c4C)C(C)(C)C(=O)O)cc32)Cc2cnccc2O1` (relative stereo) [Example 76, rel-(R)-3-(1,4-Dimethyl-1H-benzo[d][1,2,3]triazol-5-yl)-3-(rel-(S)-3-((R)-2-ethyl-2,3-dihydropyrido[3,4-f][1,4]oxazepin-4(5H)-yl)-2,3-dihydro-1H-inden-5-yl)-2,2-dimethylpropanoic acid], 1000 to 10000 nM. Regarding `Cc1ccc2c(c1)OC(C)(C)CN(C1CCc3ccc(C(CC(=O)O)c4ccc5c(nnn5C)c4C)cc31)C2` (centres unmarked) [Example 24, 3-(1,4-Dimethyl-1H-benzo[d][1,2,3]triazol-5-yl)-3-(3-(2,2,8-trimethyl-2,3-dihydrobenzo[f][1,4]oxazepin-4(5H)-yl)-2,3-dihydro-1H-inden-5-yl)propanoic Acid, Formic Acid Salt], the concentration giving a half-maximal response (EC50) is 1 to 10 nM.

`Cc1c(C(CC(=O)O)c2ccc3c(c2)C(N2Cc4ccccc4O[C@H](C)C2)CC3)ccc2c1nnn2C` (stereo partly drawn) [Example 53, 3-(1,4-Dimethyl-1H-benzo[d][1,2,3]triazol-5-yl)-3-(3-((R)-2-methyl-2,3-dihydrobenzo[f][1,4]oxazepin-4(5H)-yl)-2,3-dihydro-1H-inden-5-yl)propanoic Acid]: the EC50 is 100 to 1000 nM. In the case of `CCCC1CCC(CN2C(=O)CC3Cc4ccc(C(CC(=O)O)c5ccc6c(nnn6C)c5C)cc4C32)CC1` (centres unmarked) [Example 5, 3-(1,4-Dimethyl-1H-1,2,3-benzotriazol-5-yl)-3-{2-oxo-1-[(4-propylcyclohexyl)methyl]-1H,2H,3H,3aH,4H,8bH-indeno[1,2-b]pyrrol-7-yl}propanoic Acid], the EC50 lay in the range of 1 to 10 nM. Same read-out and setting: for `CC[C@@H]1CN(C2CCc3ccc(C(CCc4cn(CC)nn4)C(C)(C)C(=O)O)cc32)Cc2cnccc2O1` (stereo partly drawn) [Example 87, 5-(1-Ethyl-1H-1,2,3-triazol-4-yl)-3-(3-((R)-2-ethyl-2,3-dihydropyrido[3,4-f][1,4]oxazepin-4(5H)-yl)-2,3-dihydro-1H-inden-5-yl)-2,2-dimethylpentanoic Acid] the value was 10 to 100 nM; for `Cc1c([C@H](c2ccc3c(c2)[C@@H](N2Cc4ncccc4OC(C)(C)C2)CC3)C(C)(C)C(=O)O)ccc2c1nnn2C` (racemic) [Example 68, rac-(R)-3-(1,4-Dimethyl-1H-benzo[d][1,2,3]triazol-5-yl)-3-(rac-(R)-3-(2,2-dimethyl-2,3-dihydropyrido[2,3-f][1,4]oxazepin-4(5H)-yl)-2,3-dihydro-1H-inden-5-yl)-2,2-dimethylpropanoic acid], 10 to 100 nM; for `CC[C@@H]1CN(C2CCc3ccc(C(c4ccc5c(nnn5C)c4C)C(C)(C)C(=O)O)cc32)Cc2ccccc2O1` (stereo partly drawn) [Example 30, 3-(1,4-Dimethyl-1H-benzo[d][1,2,3]triazol-5-yl)-3-(3-((R)-2-ethyl-2,3-dihydrobenzo[f][1,4]oxazepin-4(5H)-yl)-2,3-dihydro-1H-inden-5-yl)-2,2-dimethylpropanoic Acid, Formic Acid Salt], 1 to 10 nM. Same read-out and setting: under `CCn1cc(CCC(CC(=O)O)c2ccc3c(c2)C2C(CCN2C(=O)OC(C)(C)C)C3)nn1` (centres unmarked) [Example 17, 3-(1-(tert-Butoxycarbonyl)-1,2,3,3a,4,8b-hexahydroindeno[1,2-b]pyrrol-7-yl)-5-(1-ethyl-1H-1,2,3-triazol-4-yl)pentanoic Acid] stands 1000 to 10000 nM; under `Cc1c(C(CC(=O)O)c2ccc3c(c2)C2C(CC3)CC(=O)N2CC2CCCCC2)ccc2c1nnn2C` (centres unmarked) [Example 19, 3-(1-(Cyclohexylmethyl)-2-oxo-2,3,3a,4,5,9b-hexahydro-1H-benzo[g]indol-8-yl)-3-(1,4-dimethyl-1H-benzo[d][1,2,3]triazol-5-yl)propanoic Acid], 100 to 1000 nM.

The assay is the same for the next values; noted with them: NQO1 specific enzyme activity induction in BEAS-2B cells, 48 hours; read-out: EC50.
As for `CC[C@@H]1CN([C@H]2CCc3ccc([C@@H](c4ccc5c(nnn5C)c4C)C(C)(C)C(=O)O)cc32)Cc2cnccc2O1` (relative stereo) [Example 72, rel-(S)-3-(1,4-Dimethyl-1H-benzo[d][1,2,3]triazol-5-yl)-3-(rel-(S)-3-((R)-2-ethyl-2,3-dihydropyrido[3,4-f][1,4]oxazepin-4(5H)-yl)-2,3-dihydro-1H-inden-5-yl)-2,2-dimethylpropanoic acid], the concentration for a half-maximal effect (EC50) is 1 to 10 nM. The same measure, in the same setting: under `Cc1c(C(CC(=O)O)c2ccc3c(c2)C2C(CCN2C(=O)C(C)c2ccccc2)C3)ccc2c1nnn2C` (centres unmarked) [Example 8, 3-(1,4-Dimethyl-1H-1,2,3-benzotriazol-5-yl)-3-[1-(2-phenylpropanoyl)-1H,2H,3H,3aH,4H,8bH-indeno[1,2-b]pyrrol-7-yl]propanoic Acid] stands 1000 to 10000 nM.
